Experiments:
HeLa S3 = assay: Cytotoxicity against human HeLa S3 cells assessed as reduction in cell viability by XTT assay; type: functional, cell-based
NHDF = assay: Cytotoxicity against human NHDF cells assessed as reduction in cell viability by XTT assay; type: cell-based
HepG2 = assay: Cytotoxicity against human HepG2 cells assessed as reduction in cell viability by XTT assay; type: functional, cell-based
HL-60 = assay: Cytotoxicity against human HL-60 cells assessed as reduction in cell viability by XTT assay; type: functional, cell-based
[1] = system: Trypanosoma brucei brucei; assay: Antitrypanosomal activity against Trypanosoma brucei brucei by drug sensitivity assay; type: functional, organism-based
CCRF-CEM = assay: Cytotoxicity against human CCRF-CEM cells assessed as reduction in cell viability by XTT assay; type: functional, cell-based
[2] = system: Trypanosoma brucei gambiense; assay: Antitrypanosomal activity against Trypanosoma brucei gambiense by drug sensitivity assay; type: functional, organism-based
[3] = Selective index, ratio of IC50 for human NHDF cells to EC50 for Trypanosoma brucei gambiense; type: toxicity; conditions: read-out: Ratio IC50/EC50
[4] = Selective index, ratio of IC50 for human NHDF cells to EC50 for Trypanosoma brucei brucei; type: toxicity; conditions: read-out: Ratio IC50/EC50

SMILES | IC50 (HeLa S3) [µM] | IC50 (NHDF) [µM] | IC50 (HepG2) [µM] | IC50 (HL-60) [µM] | EC50 [1] [µM] | IC50 (CCRF-CEM) [µM] | EC50 [2] [nM] | selectivity ratio [3] | selectivity ratio [4]
Nc1ncnc2c1c(-c1cccc3c1oc1ccccc13)cn2[C@@H]1O[C@H](CO)[C@@H](F)[C@H]1O | > 10 | > 10 | > 10 | > 10 | 15.4 | > 10 |  |  | 
Nc1ncnc2c1c(I)cn2[C@@H]1O[C@H](CO)[C@@H](F)[C@H]1O | 6.3 | > 10 | 1.1 | 1.13 | 0.015 | 4.5 | 22 | > 455 | > 666
Nc1ncnc2c1c(-c1cccs1)cn2[C@@H]1O[C@H](CO)[C@@H](F)[C@H]1O | > 10 | > 10 | > 10 | > 10 | 4.92 | > 10 |  |  | > 2
Nc1ncnc2c1c(-c1ccc(Cl)cc1)cn2[C@@H]1O[C@H](CO)[C@@H](F)[C@H]1O | > 10 | > 10 | > 10 | > 10 | 0.49 | > 10 | 990 | > 10 | > 20
Nc1ncnc2c1ccn2[C@@H]1O[C@H](CO)[C@@H](F)[C@H]1O | > 10 | > 10 | > 10 | > 10 | 6 | > 10 |  |  | > 1.7
Nc1ncnc2c1c(-c1ccco1)cn2[C@@H]1O[C@H](CO)[C@@H](F)[C@H]1O | > 10 | > 10 | > 10 | > 10 | 1.59 | > 10 |  |  | > 6
Nc1ncnc2c1c(-c1ccc3ccccc3c1)cn2[C@@H]1O[C@H](CO)[C@@H](F)[C@H]1O | > 10 | > 10 | > 10 | > 10 | 16.2 | > 10 |  |  | 
Nc1ncnc2c1c(Br)cn2[C@@H]1O[C@H](CO)[C@@H](F)[C@H]1O | > 10 | > 10 | > 10 | > 10 | 0.048 | > 10 | 37 | > 270 | > 208
